Structures are written as SMILES.

These results are taken from patent publication US12600740B2, “Fluorinated N-acetyl glucosamine analogs and xylose derivatives” (UTI Limited Partnership, priority 2018, dated 2026).

The assay deals with EAE mice. Put plainly: Perivascular cuffs per spinal cord and Imaris quantification of CD45+ cells in EAE mice. Format: in vivo, mouse. The source says:
Previously it was shown that CSPGs are accumulated in perivascular cuffs and may have a role in activating immune cells and promoting their migration into the CNS [Stephenson, E. L. et al. Chondroitin sulfate proteoglycans as novel drivers of leucocyte infiltration in multiple sclerosis. Brain: a journal of neurology 141, 1094-1110 (2018)]. For the current study, cervical spinal cord sections from EAE mice treated with Ac-4,4-diF-GlcNAc 16 or vehicle were stained with pan-laminin and CD45. Confocal images were processed by Imaris software to quantify the number of CD45+ cells and their intra-parenchymal distances from perivascular cuffs as previously described [Stephenson, E. L. et al. Chondroitin sulfate proteoglycans as novel drivers of leucocyte infiltration in multiple sclerosis. Brain: a journal of neurology 141, 1094-1110 (2018)] (FIG. 10f).
Perivascular cuffs were identified with pan-laminin staining of two basement membranes with CD45+ cells clustered within the perivascular space. To obtain the average number of perivascular cuffs per spinal cord, perivascular cuffs were counted on 4 cervical spinal cord sections (each >200 μm apart), and then averaged to obtain the average perivascular cuffs per spinal cord per mouse. The Imaris software (Bitplane, Switzerland) was used to quantify the number and distance of CD45+ cells around perivascular cuffs. CD45+ cells were registered as spots and the laminin-positive membranes were registered as surfaces. The Xtension component in Imaris ‘distance transformation’ calculated the distance of every CD45+ cell from the perivascular cuff.

On to `CC(=O)NC1C(OC(C)=O)OC(COC(C)=O)C(F)(F)[C@@H]1OC(C)=O` (mixture of isomers) [Compound 16, 2-Acetamido-1,3,6-tri-O-acetyl-2,4-dideoxy-4,4-difluoro-α/β-D-xylo-hexopyranose], for which the “CD45+ cells by distance from perivascular cuffs, overall versus vehicle” value (0 to 100 μm, two-way repeated measures ANOVA) is “overall significant difference”. For the same compound, the “average number of perivascular cuffs per spinal cord” value (25 mg/kg daily day 7 to 15) is on record as “significantly reduced average number of perivascular cuffs”. Further, the “CD45+ cells in the vicinity of perivascular cuffs (within 100 μm)” value (25 mg/kg daily day 7 to 15, cervical spinal cord) was “significantly fewer CD45+ cells in the vicinity of perivascular cuffs”. Moreover, for the setting “50-100 μm”, the “number of CD45+ cells at 50-100 μm from perivascular cuffs versus vehicle” value was “significant difference”.
